Bridge positions count the residues as written; N and C are the ends. Peptide text beside a SMILES is read from it.
Biological target: T1, Q55K Ls-AChBP mutant (Lymnaea stagnalis, UniProt P58154, Q74K)
T1 construct: made in house; Top10 E. coli is named only for plasmid propagation
Assay: biochemical
Type: binding
Conditions: SEM

Work on `CC[C@H](C)[C@@H]1NC(=O)[C@H](CC(N)=O)NC(=O)[C@@H]2CCCN2C(=O)[C@H](CC(N)=O)NC(=O)[C@H](CC(N)=O)NC(=O)[C@H](C(C)C)NC(=O)[C@H](CCCNC(=N)N)NC(=O)[C@@H]2CSSC[C@H](NC(=O)CNC(=O)[C@@H](N)CO)C(=O)N[C@@H](CSSC[C@@H](C(N)=O)NC1=O)C(=O)N[C@@H](CO)C(=O)N[C@@H](CC(N)=O)C(=O)N1CCC[C@H]1C(=O)N[C@@H](C)C(=O)N2` [LsIA] (H-SGCCSNPACRVNNPNIC-NH2; disulfide 3-9, 4-17) yielded an IC50 of 17.4 ± 10.7 µM.

— PMC5374441 (Scientific Reports, 2017)
